{
  "source": "patent US20060019892A1",
  "about": "(Florida Atlantic University, priority 2003, published 2006)",
  "system": "primary cultures of rat neonatal cortex (cultured cortical neurons)",
  "format": "cell-based",
  "note": "Non-standard residues stand in square brackets, D forms with d. No end group written: not given here. Hyp = O=C(O)[C@@H]1C[C@@H](O)CN1",
  "data": [
    {"substance": "A-O-A-N-S-V-W-S (A[Hyp]ANSVWS) [gla-2]", "values": [
      {"measurement": "effect on Ca^++ flux in the cells", "value": "reducing Ca^++ flux"},
      {"measurement": "modulation of Ca^++ flux in cultured neurons from rat cortex", "value": "modulate Ca^++ flux"}
    ]}
  ]
}
